Measured values from patent publication US20250304576A1 (Cancer Research Technology Limited, priority 2022, published 2025).

Assays:
Recombinant IKKα = target: T1, Recombinant IKKα (Homo sapiens, UniProt O15111); assay: DELFIA IKKα kinase assay (apparent Ki, Cheng-Prusoff); type: biochemical
T1 construct: purchased Millipore, Dundee, UK
T1 sequence (O15111 1-745): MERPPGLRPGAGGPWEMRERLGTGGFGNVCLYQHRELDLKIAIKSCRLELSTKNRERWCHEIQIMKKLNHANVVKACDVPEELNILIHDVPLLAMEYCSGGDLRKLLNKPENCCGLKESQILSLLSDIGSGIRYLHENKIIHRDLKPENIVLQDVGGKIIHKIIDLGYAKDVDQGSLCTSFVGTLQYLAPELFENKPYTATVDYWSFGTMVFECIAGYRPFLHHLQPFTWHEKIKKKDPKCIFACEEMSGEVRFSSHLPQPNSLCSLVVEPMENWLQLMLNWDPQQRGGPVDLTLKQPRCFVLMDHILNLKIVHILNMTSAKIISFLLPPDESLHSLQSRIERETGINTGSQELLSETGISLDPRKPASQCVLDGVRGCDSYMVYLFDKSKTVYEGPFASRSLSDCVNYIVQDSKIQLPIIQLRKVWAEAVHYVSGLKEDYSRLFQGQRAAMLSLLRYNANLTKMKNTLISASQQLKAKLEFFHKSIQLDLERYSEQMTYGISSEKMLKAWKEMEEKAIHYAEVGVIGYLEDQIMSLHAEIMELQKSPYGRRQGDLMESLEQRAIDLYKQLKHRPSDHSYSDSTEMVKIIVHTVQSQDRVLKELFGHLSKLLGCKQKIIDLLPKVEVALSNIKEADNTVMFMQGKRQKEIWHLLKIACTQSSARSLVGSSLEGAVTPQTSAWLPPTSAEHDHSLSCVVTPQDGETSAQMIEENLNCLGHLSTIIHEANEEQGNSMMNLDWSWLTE
Description: (§1) IKKα and IKKβ inhibitory activity was determined using three different assays: a dissociation enhanced ligand fluorescent immunoassay (DELFIA) based on the protocol of HTScan™ IKKβ Kinase Assay (Cell Signaling Technology, USA); an Adapta IKKα assay (performed by Life Technologies); a Z′-LYTE™ IKKβ assay (performed by Life Technologies).
(§2) Recombinant IKKα or IKKβ, 37 nM, (Millipore, Dundee, UK) was incubated with IηB-α (Ser32) (New England Biolabs, Hitchin, UK) biotinylated peptide substrate (0.375 μM) and 40 μM ATP in assay buffer (40 mM Tris-HCl (pH 7.5), 20 mM MgCl2, EDTA 1 mM, DTT 2 mM and BSA 0.01 mg/ml) in a V-well 96-well plate in the presence and absence of test compound. The assay plate was incubated for 60 minutes at 30° C. after which the kinase reaction was quenched by the addition of 50 mM EDTA, pH8. The resulting mixture was transferred to a streptavidin coated 96-well plate (Perkin Elmer, Beaconsfield, UK) and incubated for 1 hour at 30° C. to immobilise the substrate peptide. After three washes with wash buffer (0.01 M phosphate buffered saline (PBS), 0.05% Tween −20, pH 7.4) a primary antibody against the phosphorylated substrate (phospho-IηB-a) (Ser32/36) (5A5) Mouse mAb (New England Biolabs, Hitchin, UK) (1:1000 dilution with 1% bovine serum albumin (BSA) in wash buffer) was added and incubated at 37° C. for 2 h.
(§3) After a further three washes, a secondary europiated antibody (Eu-N1 labelled anti-mouse IgG, (Perkin Elmer, Beaconsfield, UK) diluted 1:500 in 1% BSA/wash buffer) was added and incubated at 30° C. for 30 minutes. After a further five washes, DELFIA enhancement solution—(Perkin Elmer, Beaconsfield UK) was added and allowed to incubate for 10 min at room temperature, protected from light, to facilitate the chemifluorescent detection. The relative fluorescence units (RFU) signal were measured on a Wallac Victor 1420 multilabel counter (Perkin Elmer, Beaconsfield, UK), in time-resolved fluorescence mode. The counter was set at an excitation wavelength of 340 nm with a 400 μs delay before detecting emitted light at 615 nm. The apparent Ki of the […] was calculated for each compound using the Cheng-Prusoff Equation.
(§4) The IKKα and IKKβ figures quoted in non-italicised form are from the DELFIA assay described above.

Recombinant IKKβ = target: T2, Recombinant IKKβ (Homo sapiens, UniProt O14920); assay: DELFIA IKKβ kinase assay (apparent Ki, Cheng-Prusoff); type: biochemical
T2 construct: purchased Millipore, Dundee, UK
T2 sequence (O14920 1-756): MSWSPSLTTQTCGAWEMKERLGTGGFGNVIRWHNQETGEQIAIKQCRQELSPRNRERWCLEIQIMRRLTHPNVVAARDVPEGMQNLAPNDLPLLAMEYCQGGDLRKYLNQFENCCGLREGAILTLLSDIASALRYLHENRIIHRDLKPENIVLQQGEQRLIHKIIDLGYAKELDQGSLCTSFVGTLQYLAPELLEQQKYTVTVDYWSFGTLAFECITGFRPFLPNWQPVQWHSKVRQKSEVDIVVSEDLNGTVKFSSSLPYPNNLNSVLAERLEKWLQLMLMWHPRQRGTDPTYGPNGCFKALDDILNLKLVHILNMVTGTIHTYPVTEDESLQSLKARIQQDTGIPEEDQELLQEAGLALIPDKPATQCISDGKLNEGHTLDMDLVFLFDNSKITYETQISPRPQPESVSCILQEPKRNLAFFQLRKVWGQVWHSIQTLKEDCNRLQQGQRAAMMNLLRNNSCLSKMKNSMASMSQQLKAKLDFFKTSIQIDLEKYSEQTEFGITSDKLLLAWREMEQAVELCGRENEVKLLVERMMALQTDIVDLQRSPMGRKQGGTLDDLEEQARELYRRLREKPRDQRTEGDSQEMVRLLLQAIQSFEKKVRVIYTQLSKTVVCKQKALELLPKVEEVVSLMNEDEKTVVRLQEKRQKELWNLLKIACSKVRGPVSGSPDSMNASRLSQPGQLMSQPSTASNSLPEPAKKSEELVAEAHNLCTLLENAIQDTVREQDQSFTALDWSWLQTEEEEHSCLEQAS
Description: as §1, §2, §3, §4

[1] = non-italicised figure: DELFIA assay
[2] = DELFIA assay (first line of an example)

| Compound | Ki (Recombinant IKKα; [1]) [nM] | Ki (Recombinant IKKβ; [1]) [nM] | Ki (Recombinant IKKα; [2]) [nM] | Ki (Recombinant IKKβ; [2]) [nM] |
| --- | --- | --- | --- | --- |
| CN(C)c1ccc(-c2cc(-c3ccnc(N)c3)cc3c(N)n[nH]c23)cc1 [Example 119, 5-(2-Aminopyridin-4-yl)-7-(4-(dimethylamino)phenyl)-1H-indazol-3-amine] | 84 | 2510 | – | – |
| Nc1n[nH]c2c(C#CC3(O)CCCCCC3)cc(-c3ccnc4[nH]ccc34)cc12 [Example 209, 1-((3-Amino-5-(1H-pyrrolo[2,3-b]pyridin-4-yl)-1H-indazol-7-yl)ethynyl)cycloheptan-1-ol] | – | – | 153 | 2330 |
| Nc1cc(-c2cc(-c3cccc(C=O)c3)c3[nH]nc(N)c3c2)ccn1 [Example 111, 3-(3-Amino-5-(2-aminopyridin-4-yl)-1H-indazol-7-yl)benzaldehyde] | 12 | 100 | – | – |
| Nc1cc(-c2cc(-c3cccc(S(N)(=O)=O)c3)c3[nH]nc(N)c3c2)ccn1 [Example 114, 3-(3-Amino-5-(2-aminopyridin-4-yl)-1H-indazol-7-yl)benzenesulfonamide] | 7 | 461 | – | – |
| CC(C)(C)C#Cc1cc(-c2ccnc(N)c2F)cc2c(N)n[nH]c12 [Example 149, 5-(2-Amino-3-fluoropyridin-4-yl)-7-(3,3-dimethylbut-1-yn-1-yl)-1H-indazol-3-amine] | 8 | 220 | – | – |
| Nc1n[nH]c2ccc(-c3ccnc(NC(=O)Nc4cccc(OCc5ccccc5F)c4)c3)cc12 [Example 60, 1-(4-(3-Amino-1H-indazol-5-yl)pyridin-2-yl)-3-(3-((2-fluorobenzyl)oxy)phenyl)urea] | 76 | 2480 | – | – |
| COC(=O)c1ccc(C#Cc2c(-c3ccc4[nH]nc(N)c4c3)ccnc2N)cc1 [Example 80, Methyl 4-((2-amino-4-(3-amino-1H-indazol-5-yl)150yridine-3-yl)ethynyl)benzoate] | 2 | 15 | – | – |
| CCNc1cc(-c2ccc3[nH]nc(N)c3c2)ccn1 [Example 12, 5-[2-(Ethylamino)pyridin-4-yl]-1H-indazol-3-amine] | 8 | 38 | – | – |
| Nc1cc(-c2cc(C#CCCO)c3[nH]nc(N)c3c2)ccn1 [Example 139, 4-(3-Amino-5-(2-aminopyridin-4-yl)-1H-indazol-7-yl)but-3-yn-1-ol] | 186 | 4610 | – | – |
| CCNC(=O)Nc1cc(-c2ccc3[nH]nc(N)c3c2)ccn1 [Example 36, 1-(4-(3-Amino-1H-indazol-5-yl)pyridine-2-yl)-3-ethylurea] | 20 | 838 | – | – |
| Nc1n[nH]c2ccc(-c3ccnc(NCCN4CCOCC4)c3)cc12 [Example 30, 5-(2-((2-Morpholinoethyl)amino)pyridine-4-yl)-1H-indazol-3-amine] | 340 | 377 | – | – |
| C#Cc1cc(-c2ccnc3[nH]ccc23)cc2c(N)n[nH]c12 [Example 6, 7-Ethynyl-5-(1H-pyrrolo[2,3-b]pyridin-4-yl)-1H-indazol-3-amine] | 26 | 137 | – | – |
| Nc1n[nH]c2ccc(-c3ccnc(NCCCO)n3)cc12 [Example 28, 3-((4-(3-Amino-1H-indazol-5-yl)pyrimidin-2-yl)amino)propan-1-ol] | 65 | 460 | – | – |
| CC(C)(C)CCc1cc(-c2ccnc(N)c2)cc2c(N)n[nH]c12 [Example 144, 5-(2-Aminopyridin-4-yl)-7-(3,3-dimethylbutyl)-1H-indazol-3-amine] | 15 | 318 | – | – |

The remaining lines, values ahead:

| Ki (Recombinant IKKα; [1]) [nM] | Ki (Recombinant IKKβ; [1]) [nM] | Ki (Recombinant IKKα; [2]) [nM] | Ki (Recombinant IKKβ; [2]) [nM] | Compound |
| --- | --- | --- | --- | --- |
| – | – | 8 | 377 | CN(C)CCNC(=O)c1cc2c(-c3ccc4[nH]nc(N)c4c3)ccnc2[nH]1 [Example 242, 4-(3-Amino-1H-indazol-5-yl)-N-(2-(dimethylamino)ethyl)-1H-pyrrolo[2,3-b]pyridine-2-carboxamide] |
| – | – | 9.8 | 83 | COC(=O)Nc1cc(-c2cc(-c3ccc(O)cc3)c3[nH]nc(N)c3c2)ccn1 [Example 323, Methyl (4-(3-Amino-7-(4-hydroxyphenyl)-1H-indazol-5-yl)pyridin-2-yl)carbamate] |
| – | – | 26 | 419 | CC(C)(O)c1cc2c(-c3ccc4[nH]nc(N)c4c3)ccnc2[nH]1 [Example 225, 2-(4-(3-Amino-1H-indazol-5-yl)-1H-pyrrolo[2,3-b]pyridin-2-yl)propan-2-ol] |
| – | – | 96 | 1090 | Nc1n[nH]c2c(C#CC3(O)CCCC3)cc(-c3ccnc(NC4COC4)c3)cc12 [Example 305, 1-((3-Amino-5-(2-(oxetan-3-ylamino)pyridin-4-yl)-1H-indazol-7-yl)ethynyl)cyclopentan-1-ol] |
| – | – | 911 | ≥ 10000 | CC(C)(C)C#Cc1cc(-c2ccnc(Nc3nccs3)c2)cc2c(N)n[nH]c12 [Example 314, N-(4-(3-Amino-7-(3,3-dimethylbut-1-yn-1-yl)-1H-indazol-5-yl)pyridin-2-yl)thiazol-2-amine] |
| – | – | 202 | 4580 | CC(C)(C)C#Cc1cc(-c2ccnc(Nc3ncccn3)c2)cc2c(N)n[nH]c12 [Example 321, 7-(3,3-Dimethylbut-1-yn-1-yl)-5-(2-(pyrimidin-2-ylamino)pyridin-4-yl)-1H-indazol-3-amine] |
| – | – | 335 | > 30000 | CC(C)(C)C#Cc1cc(-c2ccnc(Nc3nc(C(F)(F)F)co3)c2)cc2c(N)n[nH]c12 [Example 316, N-(4-(3-Amino-7-(3,3-dimethylbut-1-yn-1-yl)-1H-indazol-5-yl)pyridin-2-yl)-4-(trifluoromethyl)oxazol-2-amine] |
| – | – | 215 | > 10000 | CC(C)(C)C#Cc1cc(-c2ccnc(NCCC(F)(F)F)c2)cc2c(N)n[nH]c12 [Example 283, 7-(3,3-Dimethylbut-1-yn-1-yl)-5-(2-((3,3,3-trifluoropropyl)amino)pyridin-4-yl)-1H-indazol-3-amine] |
| – | – | 10 | 280 | CC(C)(C)C#Cc1cc(-c2ccnc(Nc3cn[nH]c3)c2)cc2c(N)n[nH]c12 [Example 311, 5-(2-((1H-Pyrazol-4-yl)amino)pyridin-4-yl)-7-(3,3-dimethylbut-1-yn-1-yl)-1H-indazol-3-amine] |
| – | – | 1 | 111 | Nc1n[nH]c2ccc(-c3ccnc4[nH]c(Cc5ccccc5)cc34)cc12 [Example 223, 5-(2-Benzyl-1H-pyrrolo[2,3-b]pyridin-4-yl)-1H-indazol-3-amine] |
